# In PubChem BioAssay (NCI):
#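 Five concentrations, 48 hours, 96-well plates. GI50 marks 50% less growth. The concentration for full growth arrest is given as TGI.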
# Legend:
# Assay in all cases: NCI anticancer screen, dose series, 48 h
# DU-145 prostate = test system: DU-145 prostate
# RXF 393 renal = test system: RXF 393 renal
# MDA-MB-435 = test system: MDA-MB-435
# MDA-MB-231 breast = test system: MDA-MB-231 breast
# ACHN renal = test system: ACHN renal
# EKVX NSCLC = test system: EKVX NSCLC
# SK-MEL-28 melanoma = test system: SK-MEL-28 melanoma
# HCT-116 colon = test system: HCT-116 colon
# TK-10 renal = test system: TK-10 renal
# COLO 205 colon = test system: COLO 205 colon
# SK-MEL-5 melanoma = test system: SK-MEL-5 melanoma
# UACC-257 melanoma = test system: UACC-257 melanoma
# UO-31 renal = test system: UO-31 renal
# MDA-MB-468 breast = test system: MDA-MB-468 breast
# SK-OV-3 ovarian = test system: SK-OV-3 ovarian
# HCC-2998 colon = test system: HCC-2998 colon
# NCI-H460 lung = test system: NCI-H460 lung
# A549 NSCLC = test system: A549 NSCLC
# SF-539 CNS = test system: SF-539 CNS
# LOX IMVI melanoma = test system: LOX IMVI melanoma
# UACC-62 melanoma = test system: UACC-62 melanoma
# HT29 colon = test system: HT29 colon
# HS 578T breast = test system: HS 578T breast
# T-47D breast = test system: T-47D breast
# SW-620 colon = test system: SW-620 colon
# K-562 leukemia = test system: K-562 leukemia
# A498 renal = test system: A498 renal
# CCRF-CEM leukemia = test system: CCRF-CEM leukemia
# PC-3 prostate = test system: PC-3 prostate
# M14 melanoma = test system: M14 melanoma
# OVCAR-4 ovarian = test system: OVCAR-4 ovarian
# HOP-62 NSCLC = test system: HOP-62 NSCLC
# NCI-H522 lung = test system: NCI-H522 lung
# 786-0 renal = test system: 786-0 renal
# OVCAR-5 ovarian = test system: OVCAR-5 ovarian
# HCT-15 colon = test system: HCT-15 colon
# SF-268 CNS = test system: SF-268 CNS
# KM12 colon = test system: KM12 colon
# MOLT-4 leukemia = test system: MOLT-4 leukemia
# SNB-75 CNS = test system: SNB-75 CNS
# MALME-3M melanoma = test system: MALME-3M melanoma
# SR leukemia = test system: SR leukemia
# U251 CNS = test system: U251 CNS
# MCF7 breast = test system: MCF7 breast
# NCI-H226 lung = test system: NCI-H226 lung
# BT-549 breast = test system: BT-549 breast
# SF-295 CNS = test system: SF-295 CNS
# IGROV1 ovarian = test system: IGROV1 ovarian
# SNB-19 CNS = test system: SNB-19 CNS
# NCI-H23 lung = test system: NCI-H23 lung
# CAKI-1 renal = test system: CAKI-1 renal
# OVCAR-3 ovarian = test system: OVCAR-3 ovarian
# HOP-92 NSCLC = test system: HOP-92 NSCLC
# RPMI-8226 leukemia = test system: RPMI-8226 leukemia
# SK-MEL-2 melanoma = test system: SK-MEL-2 melanoma
# SN12C renal = test system: SN12C renal
smiles,measurement,setting,value
CN(C)c1ccnc(CNCCSC2(c3ccccc3)c3ccccc3C=Cc3ccccc32)c1,GI50,DU-145 prostate,2850 nM
same,TGI,DU-145 prostate,8110 nM
same,GI50,RXF 393 renal,1250 nM
same,TGI,RXF 393 renal,4500 nM
same,GI50,MDA-MB-435,215 nM
same,TGI,MDA-MB-435,495 nM
same,GI50,MDA-MB-231 breast,1460 nM
same,TGI,MDA-MB-231 breast,3630 nM
same,GI50,ACHN renal,1440 nM
same,TGI,ACHN renal,12200 nM
same,GI50,EKVX NSCLC,2440 nM
same,TGI,EKVX NSCLC,13900 nM
same,GI50,SK-MEL-28 melanoma,2020 nM
same,TGI,SK-MEL-28 melanoma,4110 nM
same,GI50,HCT-116 colon,526 nM
same,TGI,HCT-116 colon,2100 nM
same,GI50,TK-10 renal,3090 nM
same,TGI,TK-10 renal,14800 nM
same,GI50,COLO 205 colon,1610 nM
same,TGI,COLO 205 colon,3110 nM
same,GI50,SK-MEL-5 melanoma,1460 nM
same,TGI,SK-MEL-5 melanoma,2780 nM
same,GI50,UACC-257 melanoma,1790 nM
same,TGI,UACC-257 melanoma,4180 nM
same,GI50,UO-31 renal,2160 nM
same,TGI,UO-31 renal,11400 nM
same,GI50,MDA-MB-468 breast,460 nM
same,TGI,MDA-MB-468 breast,2060 nM
same,GI50,SK-OV-3 ovarian,2800 nM
same,TGI,SK-OV-3 ovarian,9040 nM
same,GI50,HCC-2998 colon,1410 nM
same,TGI,HCC-2998 colon,2980 nM
same,GI50,NCI-H460 lung,1610 nM
same,TGI,NCI-H460 lung,3130 nM
same,GI50,A549 NSCLC,556 nM
same,TGI,A549 NSCLC,5830 nM
same,GI50,SF-539 CNS,1470 nM
same,TGI,SF-539 CNS,2830 nM
same,GI50,LOX IMVI melanoma,1430 nM
same,TGI,LOX IMVI melanoma,2770 nM
same,GI50,UACC-62 melanoma,2170 nM
same,TGI,UACC-62 melanoma,5390 nM
same,GI50,HT29 colon,1690 nM
same,TGI,HT29 colon,3920 nM
same,GI50,HS 578T breast,1990 nM
same,TGI,HS 578T breast,5920 nM
same,GI50,T-47D breast,2480 nM
same,TGI,T-47D breast,9260 nM
same,GI50,SW-620 colon,579 nM
same,TGI,SW-620 colon,2260 nM
same,GI50,K-562 leukemia,380 nM
same,TGI,K-562 leukemia,> 100000 nM
same,GI50,A498 renal,9970 nM
same,TGI,A498 renal,25300 nM
same,GI50,CCRF-CEM leukemia,681 nM
same,TGI,CCRF-CEM leukemia,11900 nM
same,GI50,PC-3 prostate,1310 nM
same,TGI,PC-3 prostate,6910 nM
same,GI50,M14 melanoma,710 nM
same,TGI,M14 melanoma,2500 nM
same,GI50,OVCAR-4 ovarian,3560 nM
same,TGI,OVCAR-4 ovarian,16000 nM
same,GI50,HOP-62 NSCLC,2160 nM
same,TGI,HOP-62 NSCLC,8100 nM
same,GI50,NCI-H522 lung,1400 nM
same,TGI,NCI-H522 lung,3360 nM
same,GI50,786-0 renal,1620 nM
same,TGI,786-0 renal,3980 nM
same,GI50,OVCAR-5 ovarian,2450 nM
same,TGI,OVCAR-5 ovarian,7640 nM
same,GI50,HCT-15 colon,520 nM
same,TGI,HCT-15 colon,11400 nM
same,GI50,SF-268 CNS,1860 nM
same,TGI,SF-268 CNS,7620 nM
same,GI50,KM12 colon,1440 nM
same,TGI,KM12 colon,3240 nM
same,GI50,MOLT-4 leukemia,2490 nM
same,TGI,MOLT-4 leukemia,12400 nM
same,GI50,SNB-75 CNS,1560 nM
same,TGI,SNB-75 CNS,6290 nM
same,GI50,MALME-3M melanoma,1540 nM
same,TGI,MALME-3M melanoma,3160 nM
same,GI50,SR leukemia,798 nM
same,TGI,SR leukemia,5040 nM
same,GI50,U251 CNS,380 nM
same,TGI,U251 CNS,1600 nM
same,GI50,MCF7 breast,419 nM
same,TGI,MCF7 breast,2390 nM
same,GI50,NCI-H226 lung,2460 nM
same,TGI,NCI-H226 lung,8800 nM
same,GI50,BT-549 breast,1910 nM
same,TGI,BT-549 breast,5000 nM
same,GI50,SF-295 CNS,1800 nM
same,TGI,SF-295 CNS,5180 nM
same,GI50,IGROV1 ovarian,2940 nM
same,TGI,IGROV1 ovarian,17100 nM
same,GI50,SNB-19 CNS,3750 nM
same,TGI,SNB-19 CNS,15200 nM
same,GI50,NCI-H23 lung,2570 nM
same,TGI,NCI-H23 lung,7460 nM
same,GI50,CAKI-1 renal,2290 nM
same,TGI,CAKI-1 renal,12300 nM
same,GI50,OVCAR-3 ovarian,1730 nM
same,TGI,OVCAR-3 ovarian,4870 nM
same,GI50,HOP-92 NSCLC,1250 nM
same,TGI,HOP-92 NSCLC,5180 nM
same,GI50,RPMI-8226 leukemia,1620 nM
same,TGI,RPMI-8226 leukemia,5440 nM
same,GI50,SK-MEL-2 melanoma,2200 nM
same,TGI,SK-MEL-2 melanoma,4890 nM
same,GI50,SN12C renal,1390 nM
same,TGI,SN12C renal,6530 nM
